# Measured values published in ChEMBL document CHEMBL5291721, “A preclinical secondary pharmacology resource illuminates target-adverse drug reaction associations of marketed drugs” (Nat Commun, 2023).
# Tests used:
# [1] = target: T1, Alpha-1A adrenergic receptor (Homo sapiens, UniProt P35348)
# T1 sequence (P35348 whole entry): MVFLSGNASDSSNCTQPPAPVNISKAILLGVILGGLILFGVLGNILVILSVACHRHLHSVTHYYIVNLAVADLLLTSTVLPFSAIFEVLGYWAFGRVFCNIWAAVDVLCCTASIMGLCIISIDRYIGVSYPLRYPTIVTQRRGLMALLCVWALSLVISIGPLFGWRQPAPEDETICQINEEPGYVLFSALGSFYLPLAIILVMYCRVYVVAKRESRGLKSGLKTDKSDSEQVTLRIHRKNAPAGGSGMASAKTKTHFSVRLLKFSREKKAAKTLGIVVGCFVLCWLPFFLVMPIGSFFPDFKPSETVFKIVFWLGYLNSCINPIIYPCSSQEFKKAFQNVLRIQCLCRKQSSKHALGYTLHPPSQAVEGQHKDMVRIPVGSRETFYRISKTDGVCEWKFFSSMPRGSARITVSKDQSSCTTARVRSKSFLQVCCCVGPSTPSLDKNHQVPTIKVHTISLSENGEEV
# [2] = target: Beta-1 adrenergic receptor (Homo sapiens, UniProt P08588); assay type: functional
# [3] = target: Beta-2 adrenergic receptor (Homo sapiens, UniProt P07550); assay type: functional, cell-based
# Vasopressin V1a receptor = Vasopressin V1a receptor (Homo sapiens, UniProt P37288)
# [4] = target: Voltage-dependent N-type calcium channel subunit alpha-1B (Rattus norvegicus, UniProt Q02294); assay type: functional
# [5] = target: T2, Cholecystokinin receptor type A (Homo sapiens, UniProt P32238)
# T2 sequence (P32238 whole entry): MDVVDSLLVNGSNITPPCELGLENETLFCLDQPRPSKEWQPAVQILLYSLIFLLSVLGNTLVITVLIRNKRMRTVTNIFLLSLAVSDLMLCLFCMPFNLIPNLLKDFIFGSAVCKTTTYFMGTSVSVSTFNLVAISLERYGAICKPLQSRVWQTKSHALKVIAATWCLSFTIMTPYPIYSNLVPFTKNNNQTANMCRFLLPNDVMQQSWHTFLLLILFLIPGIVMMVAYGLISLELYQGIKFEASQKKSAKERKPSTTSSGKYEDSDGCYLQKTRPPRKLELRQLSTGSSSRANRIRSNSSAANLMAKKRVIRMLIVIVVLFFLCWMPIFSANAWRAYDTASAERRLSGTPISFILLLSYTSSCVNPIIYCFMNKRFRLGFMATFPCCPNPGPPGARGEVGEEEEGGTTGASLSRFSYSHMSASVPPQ
# [6] = target: T3, Muscarinic acetylcholine receptor M1 (Homo sapiens, UniProt P11229); assay type: functional
# T3 sequence (P11229 whole entry): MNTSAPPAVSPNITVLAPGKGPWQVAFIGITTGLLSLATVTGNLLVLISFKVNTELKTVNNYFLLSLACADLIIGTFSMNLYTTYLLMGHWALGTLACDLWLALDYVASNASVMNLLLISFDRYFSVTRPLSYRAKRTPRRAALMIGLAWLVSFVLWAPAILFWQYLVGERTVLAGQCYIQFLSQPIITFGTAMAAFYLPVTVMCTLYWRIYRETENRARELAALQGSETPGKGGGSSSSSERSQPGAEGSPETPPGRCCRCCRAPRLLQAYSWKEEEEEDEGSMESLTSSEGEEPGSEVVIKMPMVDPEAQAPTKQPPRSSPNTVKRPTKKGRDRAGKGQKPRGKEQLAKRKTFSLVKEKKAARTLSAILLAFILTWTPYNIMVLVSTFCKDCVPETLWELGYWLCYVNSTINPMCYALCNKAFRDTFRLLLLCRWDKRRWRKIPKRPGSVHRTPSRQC
# Cannabinoid receptor 1 = Cannabinoid receptor 1 (Homo sapiens, UniProt P21554)
# [7] = target: Growth hormone secretagogue receptor type 1 (Homo sapiens, UniProt Q92847)
# Histamine H2 receptor = Histamine H2 receptor (Homo sapiens, UniProt P25021)
# [8] = target: 5-hydroxytryptamine receptor 2B (Homo sapiens, UniProt P41595); assay type: functional, cell-based
# Melanocortin receptor 4 = Melanocortin receptor 4 (Homo sapiens, UniProt P32245)
# Mu-type opioid receptor = Mu-type opioid receptor (Homo sapiens, UniProt P35372)
# Progesterone receptor = target: T4, Progesterone receptor (Homo sapiens, UniProt P06401); assay type: functional
# T4 sequence (P06401 whole entry): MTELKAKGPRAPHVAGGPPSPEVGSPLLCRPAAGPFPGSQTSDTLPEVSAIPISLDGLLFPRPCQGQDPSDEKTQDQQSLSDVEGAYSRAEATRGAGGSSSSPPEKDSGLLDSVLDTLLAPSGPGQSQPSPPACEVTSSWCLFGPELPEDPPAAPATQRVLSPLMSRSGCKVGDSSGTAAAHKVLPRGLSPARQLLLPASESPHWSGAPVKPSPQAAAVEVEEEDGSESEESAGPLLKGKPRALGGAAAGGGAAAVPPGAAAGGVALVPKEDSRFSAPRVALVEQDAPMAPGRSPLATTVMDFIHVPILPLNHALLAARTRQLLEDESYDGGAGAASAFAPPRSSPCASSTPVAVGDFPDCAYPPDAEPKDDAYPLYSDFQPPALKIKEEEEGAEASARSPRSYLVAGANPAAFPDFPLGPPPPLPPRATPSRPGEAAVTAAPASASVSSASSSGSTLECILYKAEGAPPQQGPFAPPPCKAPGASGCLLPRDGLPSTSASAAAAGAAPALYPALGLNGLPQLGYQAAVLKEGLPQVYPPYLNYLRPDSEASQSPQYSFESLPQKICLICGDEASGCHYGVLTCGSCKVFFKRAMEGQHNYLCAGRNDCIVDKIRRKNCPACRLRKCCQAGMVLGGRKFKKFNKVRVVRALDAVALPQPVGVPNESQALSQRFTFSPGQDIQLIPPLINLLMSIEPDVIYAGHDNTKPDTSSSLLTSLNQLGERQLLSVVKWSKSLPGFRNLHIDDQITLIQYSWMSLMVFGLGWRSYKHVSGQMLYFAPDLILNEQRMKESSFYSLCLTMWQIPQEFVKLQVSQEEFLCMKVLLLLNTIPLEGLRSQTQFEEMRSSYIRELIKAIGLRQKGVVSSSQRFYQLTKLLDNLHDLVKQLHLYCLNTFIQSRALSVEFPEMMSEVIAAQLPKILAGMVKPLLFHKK
# Also: assay procedure not described here.
# Beta-2 adrenergic receptor, sequence (P07550 whole entry): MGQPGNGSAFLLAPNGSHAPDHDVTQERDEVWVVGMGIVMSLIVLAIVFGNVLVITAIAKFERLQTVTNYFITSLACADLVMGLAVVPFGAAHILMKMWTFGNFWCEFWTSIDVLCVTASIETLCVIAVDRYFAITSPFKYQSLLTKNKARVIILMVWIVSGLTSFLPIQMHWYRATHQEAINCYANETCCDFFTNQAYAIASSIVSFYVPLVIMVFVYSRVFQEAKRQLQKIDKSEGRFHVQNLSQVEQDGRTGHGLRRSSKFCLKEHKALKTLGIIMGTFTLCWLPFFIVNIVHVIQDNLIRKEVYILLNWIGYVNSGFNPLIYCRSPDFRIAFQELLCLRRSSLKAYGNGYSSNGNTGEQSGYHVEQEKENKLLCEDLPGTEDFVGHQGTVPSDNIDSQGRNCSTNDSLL
# Growth hormone secretagogue receptor type 1, sequence (Q92847 whole entry): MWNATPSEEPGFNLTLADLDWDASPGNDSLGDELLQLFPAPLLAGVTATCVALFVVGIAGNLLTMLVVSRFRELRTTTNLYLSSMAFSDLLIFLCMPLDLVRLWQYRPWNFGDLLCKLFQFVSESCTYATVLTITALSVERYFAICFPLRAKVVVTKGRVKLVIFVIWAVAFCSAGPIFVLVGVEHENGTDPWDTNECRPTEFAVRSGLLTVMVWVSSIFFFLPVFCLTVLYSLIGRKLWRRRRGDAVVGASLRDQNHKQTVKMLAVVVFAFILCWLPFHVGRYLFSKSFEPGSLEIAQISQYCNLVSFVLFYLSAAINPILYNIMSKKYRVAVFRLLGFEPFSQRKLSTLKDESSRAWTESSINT
# Mu-type opioid receptor, sequence (P35372 whole entry): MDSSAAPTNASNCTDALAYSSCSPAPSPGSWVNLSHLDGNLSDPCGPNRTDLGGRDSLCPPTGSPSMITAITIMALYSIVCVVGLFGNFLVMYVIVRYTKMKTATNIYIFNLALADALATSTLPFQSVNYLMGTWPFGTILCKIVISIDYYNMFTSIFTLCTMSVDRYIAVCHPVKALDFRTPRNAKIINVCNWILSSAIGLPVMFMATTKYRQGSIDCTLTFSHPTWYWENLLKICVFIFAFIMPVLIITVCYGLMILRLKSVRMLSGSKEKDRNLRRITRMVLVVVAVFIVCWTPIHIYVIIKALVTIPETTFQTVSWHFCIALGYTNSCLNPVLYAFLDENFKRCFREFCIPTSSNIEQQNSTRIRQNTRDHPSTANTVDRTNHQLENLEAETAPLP
# Melanocortin receptor 4, sequence (P32245 whole entry): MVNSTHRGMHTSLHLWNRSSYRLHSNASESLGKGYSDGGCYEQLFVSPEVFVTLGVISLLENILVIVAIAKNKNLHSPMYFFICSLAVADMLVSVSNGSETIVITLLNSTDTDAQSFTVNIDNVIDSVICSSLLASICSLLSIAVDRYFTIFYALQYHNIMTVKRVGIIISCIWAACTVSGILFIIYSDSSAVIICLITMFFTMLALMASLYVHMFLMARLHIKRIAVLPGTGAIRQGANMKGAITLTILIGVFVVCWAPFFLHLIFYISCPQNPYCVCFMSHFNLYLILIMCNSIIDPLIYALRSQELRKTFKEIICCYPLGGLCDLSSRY
# Cannabinoid receptor 1, sequence (P21554 whole entry): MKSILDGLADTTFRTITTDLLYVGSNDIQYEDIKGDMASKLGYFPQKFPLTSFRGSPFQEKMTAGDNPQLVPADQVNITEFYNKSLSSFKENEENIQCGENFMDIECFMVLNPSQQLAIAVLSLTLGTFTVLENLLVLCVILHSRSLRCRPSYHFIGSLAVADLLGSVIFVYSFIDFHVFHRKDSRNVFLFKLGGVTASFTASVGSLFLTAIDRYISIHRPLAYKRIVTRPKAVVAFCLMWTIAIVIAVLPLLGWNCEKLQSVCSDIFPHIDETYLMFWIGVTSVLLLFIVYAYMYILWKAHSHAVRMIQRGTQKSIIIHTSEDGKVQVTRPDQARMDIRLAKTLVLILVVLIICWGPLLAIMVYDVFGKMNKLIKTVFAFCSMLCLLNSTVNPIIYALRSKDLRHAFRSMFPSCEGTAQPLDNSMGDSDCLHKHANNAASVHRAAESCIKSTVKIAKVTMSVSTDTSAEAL
# Vasopressin V1a receptor, sequence (P37288 whole entry): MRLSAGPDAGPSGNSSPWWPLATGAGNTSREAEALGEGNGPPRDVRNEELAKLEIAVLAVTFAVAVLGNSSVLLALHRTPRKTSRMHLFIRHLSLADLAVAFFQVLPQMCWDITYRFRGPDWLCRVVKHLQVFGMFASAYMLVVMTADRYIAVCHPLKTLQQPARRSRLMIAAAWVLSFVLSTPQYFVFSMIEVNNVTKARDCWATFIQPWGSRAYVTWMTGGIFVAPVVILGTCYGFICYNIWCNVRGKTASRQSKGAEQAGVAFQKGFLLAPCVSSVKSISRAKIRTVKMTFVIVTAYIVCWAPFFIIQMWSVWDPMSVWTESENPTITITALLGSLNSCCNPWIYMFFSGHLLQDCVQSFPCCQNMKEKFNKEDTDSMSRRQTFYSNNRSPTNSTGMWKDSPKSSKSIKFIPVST
# Beta-1 adrenergic receptor, sequence (P08588 whole entry): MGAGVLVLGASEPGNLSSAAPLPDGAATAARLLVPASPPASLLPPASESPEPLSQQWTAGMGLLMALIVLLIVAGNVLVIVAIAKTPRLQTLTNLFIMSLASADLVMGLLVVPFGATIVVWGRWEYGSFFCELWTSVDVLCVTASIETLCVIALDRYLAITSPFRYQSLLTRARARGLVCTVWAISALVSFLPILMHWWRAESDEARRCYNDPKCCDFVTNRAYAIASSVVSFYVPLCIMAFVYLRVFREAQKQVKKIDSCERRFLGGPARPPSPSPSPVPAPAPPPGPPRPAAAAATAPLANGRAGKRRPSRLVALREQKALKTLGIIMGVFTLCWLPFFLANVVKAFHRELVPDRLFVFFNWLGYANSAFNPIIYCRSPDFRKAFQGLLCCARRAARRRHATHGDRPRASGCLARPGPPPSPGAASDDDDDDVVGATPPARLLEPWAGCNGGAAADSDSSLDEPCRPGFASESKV
# 5-hydroxytryptamine receptor 2B, sequence (P41595 whole entry): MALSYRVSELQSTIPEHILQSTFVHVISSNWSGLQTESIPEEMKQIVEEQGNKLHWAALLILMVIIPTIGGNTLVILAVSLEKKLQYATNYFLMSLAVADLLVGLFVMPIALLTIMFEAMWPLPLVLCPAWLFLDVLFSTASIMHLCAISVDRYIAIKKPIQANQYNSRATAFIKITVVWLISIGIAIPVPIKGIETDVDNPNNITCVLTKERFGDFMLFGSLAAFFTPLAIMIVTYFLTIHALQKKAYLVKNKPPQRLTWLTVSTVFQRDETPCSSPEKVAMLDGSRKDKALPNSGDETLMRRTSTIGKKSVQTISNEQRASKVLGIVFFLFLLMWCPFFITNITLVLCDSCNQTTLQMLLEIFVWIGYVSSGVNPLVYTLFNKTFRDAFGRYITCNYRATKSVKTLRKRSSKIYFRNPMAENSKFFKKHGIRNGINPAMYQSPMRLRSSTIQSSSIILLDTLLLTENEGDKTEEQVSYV
# Histamine H2 receptor, sequence (P25021 whole entry): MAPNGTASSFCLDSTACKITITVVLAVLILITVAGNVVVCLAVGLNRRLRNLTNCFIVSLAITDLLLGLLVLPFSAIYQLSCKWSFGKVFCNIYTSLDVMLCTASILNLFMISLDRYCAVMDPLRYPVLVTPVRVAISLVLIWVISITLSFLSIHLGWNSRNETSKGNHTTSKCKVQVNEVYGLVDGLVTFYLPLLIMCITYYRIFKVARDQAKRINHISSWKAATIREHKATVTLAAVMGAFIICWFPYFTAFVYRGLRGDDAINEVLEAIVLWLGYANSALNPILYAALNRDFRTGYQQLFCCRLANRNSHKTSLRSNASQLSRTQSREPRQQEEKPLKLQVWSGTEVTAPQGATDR
SMILES,AC50 [1],AC50 [2],AC50 [3],AC50 (Vasopressin V1a receptor),AC50 [4],AC50 [5],AC50 [6],AC50 (Cannabinoid receptor 1),AC50 [7],AC50 (Histamine H2 receptor),AC50 [8],AC50 (Melanocortin receptor 4),AC50 (Mu-type opioid receptor),AC50 (Progesterone receptor)
CN[C@@H](C)[C@H](O)c1ccccc1 [EPHEDRINE],> 10 µM,> 10 µM,> 30 µM,> 10 µM,> 10 µM,> 30 µM,> 10 µM,> 10 µM,> 30 µM,> 10 µM,> 10 µM,> 30 µM,> 30 µM,
NC(CO)C(=O)NNCc1ccc(O)c(O)c1O (configuration not stated) [BENSERAZIDE],> 10 µM,> 10 µM,> 30 µM,> 30 µM,> 10 µM,> 30 µM,> 10 µM,> 10 µM,> 30 µM,> 10 µM,> 10 µM,> 30 µM,> 10 µM,
NC(=O)C[S+]([O-])C(c1ccccc1)c1ccccc1 (configuration not stated) [MODAFINIL],> 10 µM,> 10 µM,> 30 µM,> 10 µM,> 10 µM,> 30 µM,,> 10 µM,> 30 µM,> 10 µM,> 10 µM,24.1 µM,> 10 µM,
CCNC(C)Cc1cccc(C(F)(F)F)c1 (configuration not stated) [FENFLURAMINE],,,,> 10 µM,> 10 µM,> 30 µM,,> 10 µM,> 30 µM,,,> 30 µM,> 30 µM,
CN1CCN(C(=O)OC2c3nccnc3C(=O)N2c2ccc(Cl)cn2)CC1 (configuration not stated) [ZOPICLONE],> 10 µM,> 30 µM,,> 30 µM,> 10 µM,> 30 µM,> 30 µM,,> 30 µM,> 10 µM,> 10 µM,> 30 µM,> 10 µM,> 30 µM
COc1ccc2cccc(CCNC(C)=O)c2c1 [AGOMELATINE],> 10 µM,> 10 µM,,> 10 µM,> 10 µM,> 30 µM,> 10 µM,> 10 µM,> 30 µM,> 10 µM,> 30 µM,> 30 µM,> 30 µM,
Cc1c(C(=O)Nc2ccc(N3C[C@@H](C)O[C@@H](C)C3)nc2)cccc1-c1ccc(OC(F)(F)F)cc1 [SONIDEGIB],,> 10 µM,,> 10 µM,> 10 µM,> 30 µM,> 10 µM,> 10 µM,> 30 µM,> 10 µM,,> 30 µM,> 10 µM,
[H]/N=C(/N)c1ccc(NCc2nc3cc(C(=O)N(CCC(=O)O)c4ccccn4)ccc3n2C)cc1 [DABIGATRAN],,> 30 µM,> 30 µM,> 30 µM,,> 30 µM,> 30 µM,,> 30 µM,,> 30 µM,,> 30 µM,> 30 µM
O=C(O)CCCc1ccccc1 [PHENYLBUTANOIC ACID],14 µM,> 10 µM,,> 30 µM,> 10 µM,> 10 µM,> 30 µM,> 30 µM,> 10 µM,,> 30 µM,> 10 µM,> 10 µM,
CCN(CC)CCOC(=O)c1ccc(N)cc1 [PROCAINE],> 10 µM,> 10 µM,> 30 µM,,> 10 µM,> 30 µM,,> 10 µM,> 30 µM,,> 10 µM,> 30 µM,> 30 µM,
Cc1ccc(-c2nc3ccc(C)cn3c2CC(=O)N(C)C)cc1 [ZOLPIDEM],6.76 µM,> 30 µM,> 30 µM,> 30 µM,> 10 µM,> 30 µM,,> 30 µM,> 30 µM,> 10 µM,> 30 µM,> 30 µM,> 10 µM,> 30 µM
CN1CC(=O)N2[C@H](c3ccc4c(c3)OCO4)c3[nH]c4ccccc4c3C[C@@H]2C1=O,> 10 µM,> 10 µM,> 30 µM,> 30 µM,,> 30 µM,> 10 µM,> 10 µM,> 30 µM,,> 10 µM,> 30 µM,> 30 µM,
CC(Cc1ccccc1)NCCC(c1ccccc1)c1ccccc1 (configuration not stated) [PRENYLAMINE],0.877 µM,6.8 µM,> 30 µM,> 30 µM,,> 30 µM,> 10 µM,7.95 µM,3 µM,,> 10 µM,6.4 µM,1.8 µM,
CCN1CCC[C@H]1CNC(=O)c1cc(S(N)(=O)=O)ccc1OC [LEVOSULPIRIDE],16 µM,> 30 µM,> 30 µM,> 30 µM,,> 30 µM,,> 10 µM,> 30 µM,,> 10 µM,> 30 µM,> 30 µM,
CCCCCN(C)CCC(O)(P(=O)(O)O)P(=O)(O)O [IBANDRONIC ACID],> 10 µM,> 30 µM,,> 30 µM,> 10 µM,> 30 µM,> 30 µM,> 30 µM,> 30 µM,> 10 µM,> 30 µM,> 30 µM,> 30 µM,> 30 µM
CC(C)c1c(C(=O)Nc2ccccc2)c(-c2ccccc2)c(-c2ccc(F)cc2)n1CC[C@@H](O)C[C@@H](O)CC(=O)O [ATORVASTATIN],> 10 µM,> 10 µM,> 30 µM,> 30 µM,> 10 µM,> 30 µM,,> 10 µM,> 30 µM,> 10 µM,,> 30 µM,,
